Assay results taken from PubChem BioAssay AID256 (DTP/NCI, 2004).
Where “and” joins values, the source holds several entries; their conditions need not be identical. Equal values may be shown once. Inconclusive results and toxic doses are left out. How the source made its calls: active means survival T/C of 150% or more; inactive means T/C below 125% in these data.

Test system: CD2F1 mice, L1210 leukemia ip, survival T/C
Experiment: NCI In Vivo Anticancer Drug Screen. Data for tumor model L1210 Leukemia (intraperitoneal) in CD2F1 (CDF1) mice
Conditions: higher = longer survival
How it was run: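 Mice carrying a transplanted tumor received test compound or vehicle alone. The value is the measurement in the treated group divided by that in the vehicle-treated control group.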

[1] = endpoint: mean survival time, dose: 50.0 mg/kg/injection, schedule: Q01DX009 (ip), vehicle: saline with Tween-80
[2] = endpoint: mean survival time, dose: 100.0 mg/kg/injection, schedule: Q01DX009 (ip), vehicle: saline with Tween-80
[3] = endpoint: mean survival time, dose: 200.0 mg/kg/injection, schedule: Q01DX009 (ip), vehicle: saline with Tween-80

Measured: T/C

O=C(COc1ccc(Cl)c(Cl)c1)NCCc1cc[n+](Cc2ccc(Cl)cc2S(=O)(=O)F)cc1
inactive: endpoint: mean survival time, dose: 100.0 mg/kg/injection, schedule: Q01DX001 (ip), vehicle: saline with Tween-80 89 % of control | endpoint: mean survival time, dose: 200.0 mg/kg/injection, schedule: Q01DX001 (ip), vehicle: saline with Tween-80 89 % of control

O/N=C\c1cc[n+](CC[n+]2ccc(/C=N/O)cc2)cc1
inactive: endpoint: mean survival time, dose: 25.0 mg/kg/injection, schedule: Q04DX002 (ip), vehicle: other 97 % of control | endpoint: mean survival time, dose: 50.0 mg/kg/injection, schedule: Q04DX002 (ip), vehicle: other 94 % of control | endpoint: mean survival time, dose: 100.0 mg/kg/injection, schedule: Q04DX002 (ip), vehicle: other 108 % of control

COCc1nnc2nc[nH]c(=O)c2n1
inactive: endpoint: mean survival time, dose: 100.0 mg/kg/injection, schedule: Q01DX001 (ip), vehicle: carboxymethylcellulose (CMC) 98 % of control | endpoint: mean survival time, dose: 200.0 mg/kg/injection, schedule: Q01DX001 (ip), vehicle: carboxymethylcellulose (CMC) 101 % of control

O=C(O)C1Cc2c([nH]c3ccccc23)C2CC(C3CC4c5[nH]c6ccccc6c5CC(C(=O)O)N4C3=O)C(=O)N12 (stereo not drawn)
inactive: endpoint: mean survival time, dose: 100.0 mg/kg/injection, schedule: Q04DX002 (ip), vehicle: saline with Tween-80 97 % of control | endpoint: mean survival time, dose: 200.0 mg/kg/injection, schedule: Q04DX002 (ip), vehicle: saline with Tween-80 93 % of control | endpoint: mean survival time, dose: 400.0 mg/kg/injection, schedule: Q04DX002 (ip), vehicle: saline with Tween-80 89 % of control

O=[N+]([O-])c1ccc(S(=O)(=O)c2ccc([N+](=O)[O-])cc2)cc1
inactive: [1] 93 % of control | [2] 93 % of control | [3] 93 % of control

O=P(O)(O)CP(=O)(O)O.[NH-]CC[NH-].[NH-]CC[NH-].[Pd+2].[Pd+2]
inactive: endpoint: mean survival time, dose: 3.13 mg/kg/injection, schedule: Q04DX003 (ip), vehicle: distilled water + Tween-80 95 % of control | endpoint: mean survival time, dose: 6.25 mg/kg/injection, schedule: Q04DX003 (ip), vehicle: distilled water + Tween-80 106 % of control | endpoint: mean survival time, dose: 12.5 mg/kg/injection, schedule: Q04DX003 (ip), vehicle: distilled water + Tween-80 95 % of control | endpoint: mean survival time, dose: 25.0 mg/kg/injection, schedule: Q04DX003 (ip), vehicle: distilled water + Tween-80 97 % of control | endpoint: mean survival time, dose: 50.0 mg/kg/injection, schedule: Q04DX003 (ip), vehicle: distilled water + Tween-80 98 % of control | endpoint: mean survival time, dose: 100.0 mg/kg/injection, schedule: Q04DX003 (ip), vehicle: distilled water + Tween-80 106 % of control

CN1NC(c2ccccc2)C2CN(C3CCCCC3)C(=O)C21O (stereo not drawn)
inactive: endpoint: mean survival time, dose: 100.0 mg/kg/injection, schedule: Q04DX003 (ip), vehicle: saline with Tween-80 92 % of control | endpoint: mean survival time, dose: 200.0 mg/kg/injection, schedule: Q04DX003 (ip), vehicle: saline with Tween-80 88 % of control | endpoint: mean survival time, dose: 400.0 mg/kg/injection, schedule: Q04DX003 (ip), vehicle: saline with Tween-80 101 % of control

CC(=O)C1=CCC2[C@H]3CC=C4C[C@H](O)CC[C@@]4(C)C3CC[C@@]12C (stereo partly drawn)
inactive: endpoint: mean survival time, dose: 100.0 mg/kg/injection, schedule: Q04DX003 (ip), vehicle: Klucel (hydroxypropylcellulose) (HPC) 103 % of control | endpoint: mean survival time, dose: 200.0 mg/kg/injection, schedule: Q04DX003 (ip), vehicle: Klucel (hydroxypropylcellulose) (HPC) 103 % of control | endpoint: mean survival time, dose: 400.0 mg/kg/injection, schedule: Q04DX003 (ip), vehicle: Klucel (hydroxypropylcellulose) (HPC) 103 % of control

Cc1cc(O)c2c(c1O)C(=O)C13C(=C2O)C(=O)C2C(O)C1C1C(O)C3C(=O)C3=C(O)c4c(O)cc(C)c(O)c4C(=O)C321 (stereo not drawn)
inactive: endpoint: mean survival time, dose: 6.25 mg/kg/injection, schedule: Q04DX003 (ip), vehicle: saline with Tween-80 102 % of control | endpoint: mean survival time, dose: 12.5 mg/kg/injection, schedule: Q04DX003 (ip), vehicle: saline with Tween-80 107 % of control | endpoint: mean survival time, dose: 25.0 mg/kg/injection, schedule: Q04DX003 (ip), vehicle: saline with Tween-80 93 % of control | endpoint: median survival time, dose: 0.78 mg/kg/injection, schedule: Q01DX009 (ip), vehicle: saline with Tween-80 111 % of control | endpoint: median survival time, dose: 1.56 mg/kg/injection, schedule: Q01DX009 (ip), vehicle: saline with Tween-80 109 % of control | endpoint: median survival time, dose: 3.12 mg/kg/injection, schedule: Q01DX009 (ip), vehicle: saline with Tween-80 97 % of control and 102 % of control

CC1(C)N=C(N)N=C(N)N1c1cccc(CCC(=O)Nc2ccc(S(=O)(=O)F)cc2)c1
inactive: endpoint: mean survival time, dose: 50.0 mg/kg/injection, schedule: Q01DX009 (ip), vehicle: saline 100 % of control | endpoint: mean survival time, dose: 100.0 mg/kg/injection, schedule: Q01DX009 (ip), vehicle: saline 102 % of control | endpoint: mean survival time, dose: 200.0 mg/kg/injection, schedule: Q01DX009 (ip), vehicle: saline 105 % of control | endpoint: mean survival time, dose: 300.0 mg/kg/injection, schedule: Q01DX009 (ip), vehicle: saline 105 % of control | endpoint: mean survival time, dose: 400.0 mg/kg/injection, schedule: Q01DX009 (ip), vehicle: saline 108 % of control

CN(C)Cc1cccc(CN(C)C)c1O
inactive: endpoint: mean survival time, dose: 100.0 mg/kg/injection, schedule: Q01DX001 (ip), vehicle: saline 106 % of control

CCOC(=O)C1=C(C)NC(C)=C(C(=O)OCC)C1c1ccc(Cl)cc1
inactive: [2] 96 % of control | [3] 100 % of control | endpoint: mean survival time, dose: 400.0 mg/kg/injection, schedule: Q01DX009 (ip), vehicle: saline with Tween-80 96 % of control

O=c1c2ccsc2ncn1C1OC(CO)C(O)C1O (stereo not drawn)
inactive: endpoint: mean survival time, dose: 12.5 mg/kg/injection, schedule: Q01DX009 (ip), vehicle: saline with Tween-80 111 % of control | endpoint: mean survival time, dose: 25.0 mg/kg/injection, schedule: Q01DX009 (ip), vehicle: saline with Tween-80 111 % of control | [1] 91 % of control
